Patent US8815852B2, “Carbamoyloxy arylalkan arylpiperazine analgesics” (SK Biopharmaceuticals Co., Ltd., priority 2007, dated 2014)

Columns and labels:
5-HT2A receptor = 5-HT2A receptor (Rattus norvegicus (Rat), UniProt P14842); assay: Binding to 5-HT2A receptor ([3H]-Ketanserin, rat cortical membranes); design: species or system Sprague-Dawley (SD) rats; conditions: 0.5 nM [3H]-Ketanserin; read-out: 5-HT2A: IC50 (Concentration required to be 50% suppressed)
Method: Binding to 5-HT2A Receptor
6-week-old Sprague-Dawley (SD) rats were anesthetized in an ether container for 5 minutes, brains were separated from rats, and cortical regions were then separated from the brains of the rats. The cortical regions of the rats were put into a Tris-HCl buffer solution (50 mM, pH 7.7) and homogenized, and the homogenate was centrifuged twice at 4° C. at a rotary speed of 50,000 g to obtain a precipitate (membrane protein). The precipitate was put into a buffer solution, and homogenized, which was used later as a protein source. 0.5 nM [3H]-Ketanserin was used as a radioactive isotope, and 10 uM serotonin was used to remove non-specific bindings. 25 ul of the compound, 100 ul of an aqueous radioactive isotope solution, and 100 ul of the protein source were put together, and kept at 25° C. for 1 hour. The resulting mixture was filtered with a membrane filter in a 96-well harvester when the 96-well plate reaction was completed. The competitivity of the compound to [3H]-Ketanserin was determined by taking the membrane filter and measuring the radioactivity in a scintillation counter, and an IC50 value was determined by measuring the increasing concentration of the compound. The specific reaction of the compound accounted for 90% or more. The general experiments were carried out according to the method by Leysen et al. (1982, Eur. J. Pharmacol).

5-HT1A receptor = 5-HT1A receptor (Rattus norvegicus (Rat), UniProt P19327); assay: Binding to 5-HT1A receptor ([3H]-8-OH-DPAT, rat cortical membranes); design: species or system Sprague-Dawley (SD) rats; conditions: 2 nM [3H]-8-OH-DPAT; read-out: 5-HT1A: IC50 (Concentration required to be 50% suppressed)
Method: Binding to 5-HT1A Receptor
6-week-old Sprague-Dawley (SD) rats were anesthetized in an ether container for 5 minutes, brains were separated from rats, and cortical regions were then separated from the brains of the rats. The cortical regions of the rats were put into a Tris-HCl buffer solution (50 mM, pH 7.4) and homogenized, and the homogenate was centrifuged twice at 4? at a rotary speed of 50,000 g to obtain a precipitate (membrane protein). The precipitate was put into a buffer solution, and homogenized, which was used later as a protein source. 2 nM [3H]-8-OH-DPAT was used as a radioactive isotope, and 10 uM serotonin was used to remove non-specific bindings. 25 ul of the compound, 100 ul of an aqueous radioactive isotope solution, and 100 ul of the protein source were put together, and kept at 25° C. for 1 hour. The resulting mixture was filtered with a membrane filter in a 96-well harvester when the 96-well plate reaction was completed. The competitivity of the compound to [3H]-8-OH-DPAT was determined by taking the membrane filter and measuring the radioactivity of the membrane filter in a scintillation counter, and an IC50 value was determined by measuring the increasing concentration of the compound. The specific reaction of the compound accounted for 90% or more. The general experiments were carried out according to the method by Middlemiss et al. (1984, Eur. J. Pharmacol.).

male ICR mouse [1] = assay: Acetic acid-induced writhing test in mouse; format: in vivo; conditions: Mus musculus, unit not given (method doses in mg/kg), read-out: AA Writhing: ED50
Summary of the method: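 Male ICR mice (30 to 35 g) dosed orally at 10 mg/kg, then given 0.8% acetic acid i.p. 1 h later. Writhes counted for 10 min and expressed as % suppression against vehicle. ED50 derived by linear regression over at least three doses.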

male ICR mouse [2] = assay: Formalin test - late phase in mouse; format: in vivo; conditions: ip, unit inferred

5-HT2A receptor, sequence (P14842 whole entry): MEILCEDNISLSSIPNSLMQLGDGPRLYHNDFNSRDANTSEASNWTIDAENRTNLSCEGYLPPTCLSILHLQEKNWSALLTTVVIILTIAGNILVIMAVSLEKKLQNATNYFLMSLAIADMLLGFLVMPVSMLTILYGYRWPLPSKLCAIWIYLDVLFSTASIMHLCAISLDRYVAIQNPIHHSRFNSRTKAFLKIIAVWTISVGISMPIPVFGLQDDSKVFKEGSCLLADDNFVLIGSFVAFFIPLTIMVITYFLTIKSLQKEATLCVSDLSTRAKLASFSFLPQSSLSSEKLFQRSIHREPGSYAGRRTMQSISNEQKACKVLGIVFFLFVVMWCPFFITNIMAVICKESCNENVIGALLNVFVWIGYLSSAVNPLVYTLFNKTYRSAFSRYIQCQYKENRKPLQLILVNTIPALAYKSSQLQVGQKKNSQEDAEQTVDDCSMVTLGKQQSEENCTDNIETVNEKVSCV
5-HT1A receptor, sequence (P19327 whole entry): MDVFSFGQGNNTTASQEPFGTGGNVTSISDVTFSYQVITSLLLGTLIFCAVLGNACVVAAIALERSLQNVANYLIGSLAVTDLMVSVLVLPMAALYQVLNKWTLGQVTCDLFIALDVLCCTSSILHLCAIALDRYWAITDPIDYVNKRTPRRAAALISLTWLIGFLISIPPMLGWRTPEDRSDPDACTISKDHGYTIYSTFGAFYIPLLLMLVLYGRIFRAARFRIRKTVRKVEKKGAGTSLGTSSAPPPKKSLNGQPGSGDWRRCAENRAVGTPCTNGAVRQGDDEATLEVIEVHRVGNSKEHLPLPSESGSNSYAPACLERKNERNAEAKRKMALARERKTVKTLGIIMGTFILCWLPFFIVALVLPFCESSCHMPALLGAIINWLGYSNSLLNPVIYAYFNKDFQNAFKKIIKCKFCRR

NC(=O)OC(CCCN1CCN(c2ccccc2)CC1)c1ccccc1 (centres unmarked) [Example 94, Carbamic acid 1-phenyl-4-(4-phenyl-piperazin-1-yl)-butyl ester]
IC50 (5-HT2A receptor): 514 nM
IC50 (5-HT1A receptor): 89.8 nM
ED50 (male ICR mouse [1]; ip): 0.25 mg/kg
ED50 (male ICR mouse [1]; po): 3.61 mg/kg
ED50 (male ICR mouse [2]): 2.79 mg/kg
